# Data from ChEMBL document CHEMBL1135196, “4-Aminoarylguanidine and 4-aminobenzamidine derivatives as potent and selective urokinase-type plasminogen activator inhibitors” (Bioorg Med Chem Lett, 2002).
# Assays:
# Plasminogen = Plasminogen (Homo sapiens, UniProt P00747); test: Inhibition of plasmin
# [1] = biological target: T1, Tissue-type plasminogen activator (Homo sapiens, UniProt P00750); test: Activation of plasminogen
# [2] = biological target: Urokinase-type plasminogen activator (Homo sapiens, UniProt P00749)
# Description: Inhibition of urokinase-type plasminogen activator (microPa)
# Prothrombin = Prothrombin (Homo sapiens, UniProt P00734); test: Inhibition of thrombin
# Coagulation factor X [3] = biological target: T2, Coagulation factor X (Homo sapiens, UniProt P00742); test: The compound was evaluated to inhibit the Coagulation factor X
# T2 sequence (P00742 41-179 limits assumed): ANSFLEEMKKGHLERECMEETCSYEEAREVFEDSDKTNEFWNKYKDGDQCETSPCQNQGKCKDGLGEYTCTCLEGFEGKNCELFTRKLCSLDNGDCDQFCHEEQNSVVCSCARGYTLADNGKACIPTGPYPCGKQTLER
# T2 sequence (P00742 235-488 limits assumed): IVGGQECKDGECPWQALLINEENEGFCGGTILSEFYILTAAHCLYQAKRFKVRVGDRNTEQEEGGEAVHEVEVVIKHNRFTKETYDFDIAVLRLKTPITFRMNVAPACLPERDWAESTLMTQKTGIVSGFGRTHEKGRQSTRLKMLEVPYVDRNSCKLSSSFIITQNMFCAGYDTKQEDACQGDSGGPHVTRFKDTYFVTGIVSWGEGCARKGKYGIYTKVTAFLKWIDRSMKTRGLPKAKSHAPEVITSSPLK
# Coagulation factor X [4] = biological target: T2, Coagulation factor X; test: Inhibition of coagulation factor X
# [5] = biological target: T1, Tissue-type plasminogen activator; test: Activation of tissue plasminogen
# T1 sequence (P00750 whole entry): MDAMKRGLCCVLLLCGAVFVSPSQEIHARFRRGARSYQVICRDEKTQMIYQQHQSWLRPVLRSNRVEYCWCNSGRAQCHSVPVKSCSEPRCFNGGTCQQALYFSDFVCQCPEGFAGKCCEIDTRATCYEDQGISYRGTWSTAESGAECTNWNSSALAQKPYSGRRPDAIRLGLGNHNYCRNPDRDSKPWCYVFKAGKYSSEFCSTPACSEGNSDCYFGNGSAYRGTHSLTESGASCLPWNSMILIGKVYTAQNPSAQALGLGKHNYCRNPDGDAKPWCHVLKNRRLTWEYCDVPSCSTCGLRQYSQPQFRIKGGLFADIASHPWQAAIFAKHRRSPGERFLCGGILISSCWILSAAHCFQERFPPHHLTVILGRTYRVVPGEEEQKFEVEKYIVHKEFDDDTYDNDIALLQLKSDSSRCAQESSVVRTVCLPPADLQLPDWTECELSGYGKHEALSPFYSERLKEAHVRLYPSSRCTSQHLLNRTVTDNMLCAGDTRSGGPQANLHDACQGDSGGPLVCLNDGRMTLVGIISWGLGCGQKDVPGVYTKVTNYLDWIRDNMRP
# Chain of Plasminogen (P00747 97-580 limits assumed): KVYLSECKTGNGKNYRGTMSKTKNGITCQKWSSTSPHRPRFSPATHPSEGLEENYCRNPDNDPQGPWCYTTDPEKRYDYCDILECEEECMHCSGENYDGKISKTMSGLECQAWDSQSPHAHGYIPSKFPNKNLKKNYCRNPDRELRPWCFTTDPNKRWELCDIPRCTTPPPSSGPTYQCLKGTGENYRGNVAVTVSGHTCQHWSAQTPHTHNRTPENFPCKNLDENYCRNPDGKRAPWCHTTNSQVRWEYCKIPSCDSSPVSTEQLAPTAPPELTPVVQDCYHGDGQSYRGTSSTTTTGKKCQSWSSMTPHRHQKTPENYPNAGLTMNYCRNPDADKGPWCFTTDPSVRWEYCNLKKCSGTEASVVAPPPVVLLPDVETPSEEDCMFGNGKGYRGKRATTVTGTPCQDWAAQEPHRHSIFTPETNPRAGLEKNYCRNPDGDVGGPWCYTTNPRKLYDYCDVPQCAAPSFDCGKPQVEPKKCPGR
# Chain of Plasminogen (P00747 581-810 limits assumed): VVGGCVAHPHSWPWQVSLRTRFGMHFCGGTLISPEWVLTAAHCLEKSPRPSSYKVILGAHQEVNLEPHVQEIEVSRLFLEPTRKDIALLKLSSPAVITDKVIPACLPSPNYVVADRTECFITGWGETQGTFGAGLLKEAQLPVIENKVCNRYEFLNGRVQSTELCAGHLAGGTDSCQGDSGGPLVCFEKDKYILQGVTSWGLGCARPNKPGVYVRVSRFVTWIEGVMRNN
Compound,Ki (Plasminogen) [µM],Ki [1] [µM],Ki [2] [µM],Ki (Prothrombin) [µM],Ki (Coagulation factor X [3]) [µM],Ki (Coagulation factor X [4]) [µM],Ki [5] [µM]
N=C(N)c1ccc(NC(=O)c2ccc(Cl)cc2O)cc1,27,2.4,6,9.5,2.8,,
NC(N)=Nc1ccc(NC(=O)c2cccc(-c3ccccc3)c2O)cc1,,,,> 450,,> 470,> 95
N=C(N)c1ccc(NC(=O)c2cccc(-c3ccccc3)c2O)cc1,,53,8.5,120,,188,
NC(N)=Nc1ccc(NC(=O)c2ccc(Cl)cc2O)cc1,,,,> 450,,> 470,> 95
Cc1cc(I)c(O)c(C(=O)Nc2ccc(C(=N)N)c(F)c2)c1,,1.7,,,,0.52,
NC(N)=Nc1ccc(NC(=O)c2cccc(Cl)c2O)cc1,,,,> 450,,470,> 95
NC(N)=Nc1ccc(NC(=O)c2ccccc2O)cc1,> 75,> 95,,> 450,,104,
N=C(N)c1ccc(NC(=O)c2cccc(Cl)c2O)cc1,,1.5,0.6,1,,1,
CC(C)Oc1c(O)c(C(=O)Nc2ccc(NC(=N)N)cc2)cc2ccccc12,,,,> 450,,240,> 563
Cc1cccc(C(=O)Nc2ccc(C(=N)N)cc2)c1O,18,3.9,1.7,8,,5.7,
CCOc1ccc(C(=O)Nc2ccc(C(=N)N)cc2)c(O)c1,,2,0.65,34,37,,
Cc1cccc(C(=O)Nc2ccc(NC(=N)N)cc2)c1O,,,,> 450,,350,> 95
N=C(N)Nc1ccc(NC(=O)c2cc3ccccc3c(I)c2O)cn1,> 75,,,310,,68,
N=C(N)Nc1ccc(NC(=O)c2cc3ccccc3c(I)c2O)cc1,> 75,,,> 450,,> 470,> 95
Cc1cc(Br)c(O)c(C(=O)Nc2ccc(C(=N)N)cc2)c1,,0.36,,0.28,,0.44,
COc1ccc(O)c(C(=O)Nc2ccc(C(=N)N)cc2)c1,,9.4,3.1,12,5.2,,
NC(N)=Nc1ccc(NC(=O)c2cc(Br)ccc2O)cc1,,> 95,,> 450,,> 470,

Compound,Ki (Plasminogen) [µM],Ki [1] [µM],Ki [2] [µM],Ki (Prothrombin) [µM],Ki (Coagulation factor X [3]) [µM],Ki (Coagulation factor X [4]) [µM],Ki [5] [µM]
N=C(N)c1ccc(NC(=O)c2cc(Br)ccc2O)cc1,,21,,29,15,,
Cc1ccc(O)c(C(=O)Nc2ccc(C(=N)N)cc2)c1,,6.9,2.6,14,9.4,,
N=C(N)c1ccc(NC(=O)c2cc([N+](=O)[O-])ccc2O)cc1,,94,44,185,99,,
[H]/N=C(/N)c1ccc(NC(=O)c2cc(C)cc(I)c2O)cc1Cl,,256,,245,,115,
CCOc1ccc(C(=O)Nc2ccc(NC(=N)N)cc2)c(O)c1,> 75,,10,> 450,,> 470,> 95
N=C(N)Nc1ccc(NC(=O)c2cc3ccccc3c(Br)c2O)cc1,> 75,,,> 450,,> 470,> 95
Cc1ccc(C(=O)Nc2ccc(C(=N)N)cc2)c(O)c1,6,3.6,1,10,,2.3,
Cc1cc(I)c(O)c(C(=O)Nc2ccc(C(=N)N)cc2)c1,0.29,0.24,,0.38,,0.46,
Cc1cc(I)c(O)c(C(=O)Nc2ccc(NC(=N)N)cc2)c1,> 75,,8.5,> 450,,> 470,> 563
Cc1ccc(C(=O)Nc2ccc(NC(=N)N)cc2)c(O)c1,,,,> 450,,> 470,> 95
N=C(N)Nc1ccc(NC(=O)c2cc([N+](=O)[O-])ccc2O)cc1,,> 95,> 75,315,,> 470,
COc1ccc(O)c(C(=O)Nc2ccc(NC(=N)N)cc2)c1,,,20,> 450,,> 470,> 95
Cc1cc(Br)c(O)c(C(=O)Nc2ccc(NC(=N)N)cc2)c1,205,,,125,,151,258
N=C(N)Nc1ccc(NC(=O)c2cc3ccccc3c(Br)c2O)cn1,> 75,,,330,,235,
N=C(N)c1ccc(NC(=O)c2ccccc2O)cc1,90,,2.7,22,12,,10
Cc1ccc(O)c(C(=O)Nc2ccc(NC(=N)N)cc2)c1,> 75,> 95,,> 450,,> 470,
